Experimental data reported in the METLIN SMRT retention time set (Domingo-Almenara et al. 2019).

experiment: gradient 5% acetonitrile 3 min, to 50% in 2 min, to 85% in 15 min, held 3 min, 100 µL/min; settings: column: Zorbax Extend-C18 2.1 x 50 mm; eluents: water / acetonitrile, 0.1% formic acid
In short: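 In both positive and negative ionization mode, a quadrupole time-of-flight mass spectrometer coupled to HPLC analyzed pure standards run in mixtures of ~100 molecules. The Zorbax Extend-C18 column (2.1 × 50 mm, 1.8 μm) was operated at 100 μL/min with water and acetonitrile, each containing 0.1% formic acid. The dead volume was 40 μL and the dwell volume 900 μL. Retention time came from adduct peaks that were computationally picked and individually inspected by hand.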

| SMILES | RP-LC retention time [s] |
| --- | --- |
| O=C(Cn1nc(N2CCSCC2)c2ccccc2c1=O)Nc1ccc2c(c1)OCCO2 | 818 |
| Fc1ccccc1N1CCN(Cc2nc(-c3ccc(N4CCSCC4)nc3)no2)CC1 | 1030 |
| CN(CCO)c1cc(N2CCN(c3ccccn3)CC2)c2noc3c2c1C(=O)c1ccccc1-3 | 614 |
| CC(C)CCNC(=O)C1CCN(S(=O)(=O)c2ccc3c(c2)NC(=O)CO3)CC1 | 744 |
| COc1ccc(-c2cc3n(n2)CCCN(S(=O)(=O)c2ccc(NC(C)=O)cc2)C3)cc1 | 779 |
| CSc1nc2c(c(=O)n1-c1ccc([N+](=O)[O-])cc1)SCC2 | 816 |
| COc1cccc(S(=O)(=O)N2CCC(N3CCN(Cc4ccccc4)C(=O)C3=O)CC2)c1 | 763 |
| CCOC(=O)N1CCC(NC(=O)c2coc(NC(=O)c3ccco3)n2)CC1 | 605 |
| CCC(=O)N1CCc2c(sc3ncnc(N4CCCC4)c23)C1 | 641 |
| CCCCNC(=O)Cn1c(=O)c2cnc(-c3ccccc3)nc2n(CC)c1=O | 937 |
| N#C/C(=C\c1c[nH]c2ccccc12)C(N)=O | 713 |
| Cc1ccc(-c2cc3c(=O)n(Cc4noc(-c5ccccc5)n4)ccn3n2)c(C)c1 | 1160 |
| CCCN(C)c1nccnc1OC1CCN(C(=O)C2CC2)C1 (stereo not drawn) | 724 |
| Cc1ccc(C(=O)N2C[C@@H]3C[C@H]2C[C@@H]3NS(=O)(=O)c2cccnc2)cc1F | 716 |
| CCOc1ccc(-c2cc(C(=O)N3CCN(c4ccccn4)CC3)c3ccccc3n2)cc1 | 726 |
| CCOc1ccccc1-c1noc(Cn2c(=O)n(Cc3ccc(F)cc3)c(=O)c3sccc32)n1 | 1100 |
| Cc1ccc(Nc2nc(N3CCN(C(=O)c4ccco4)CC3)nc3[nH]ncc23)cc1 | 616 |
| O=C(Nc1ccc(Cl)cc1F)N1CCC(N2CC(F)(F)C[C@H]2COCC2CC2)CC1 | 741 |
| O=C(Nc1cccc(-c2nnc3n2CCCC3)c1)c1ccn[nH]1 | 595 |
| CCN1CCN(C(=O)C2CCc3sc(C(=O)N4CCCCC4)cc3C2)CC1 (stereo not drawn) | 613 |

| SMILES | RP-LC retention time [s] |
| --- | --- |
| CCCNc1cc(N2CCC(CCC(=O)NCCc3cccs3)CC2)ncn1 | 662 |
| Cc1nc(C)c2c(n1)N(Cc1cccc(F)c1)C(=O)CC2 | 666 |
| CCOc1ccccc1N1CCN(C(=O)CSc2nccnc2Oc2ccc(C)cc2)CC1 | 1020 |
| CCOc1cccc(-c2noc(Cn3ccn(-c4ccc(Cl)cc4)c(=O)c3=O)n2)c1 | 895 |
| Cc1cccc(NC(=O)CSc2cc(N3CCN(c4ccccc4F)CC3)ncn2)c1 | 1110 |
| O=C(NC1CCCC1)c1cn(-c2cc(-c3nc(C4CC4)no3)ccn2)cn1 | 867 |
| CCNc1cc(N2CCCC(CCC(=O)N3CCc4ccccc4C3)C2)ncn1 (stereo not drawn) | 694 |
| COCCNC(=O)N1CCCC(COC)C1 (stereo not drawn) | 578 |
| Cc1ccc(-c2nnc(-c3cccc(S(=O)(=O)N4CCN(C)CC4)c3)o2)cc1 | 679 |
| Cc1ccccc1-c1noc(Cn2c(=O)n(CC(C)C)c(=O)c3ccccc32)n1 | 1220 |
| CCC(C)NS(=O)(=O)c1cc(-c2nc(C)cs2)n(C)c1C (stereo not drawn) | 905 |
| CC(C)(C)c1ccc(-c2noc(Cn3c(=O)n(-c4ccc(Cl)cc4)c(=O)c4sccc43)n2)cc1 | 1280 |
| CC(=O)Nc1cc(-c2nc(-c3ccc4oc(-c5ccccc5)nc4c3)no2)ccc1C | 738 |
| Cn1c(N2CCCC(C(=O)NC3CCN(Cc4ccccc4)CC3)C2)cc(=O)n(C)c1=O (stereo not drawn) | 576 |
| O=C(c1ccc2cc[nH]c2c1)N1CCC(c2nc(C3CC3)n[nH]2)CC1 | 546 |
| Cc1nc2cc(-c3noc(C4CC(=O)N(c5cccc(Cl)c5)C4)n3)ccc2o1 (stereo not drawn) | 958 |
| Cc1ccc(-c2nnc(Cc3nc(-c4cccc(Cl)c4)no3)o2)cc1F | 1170 |
| O=C(c1ccsc1)N1CCN(c2cc(-c3cccnc3)[nH]n2)CC1 | 584 |
| Cc1nc(C)c(C(=O)N2CCC(n3c(C)cnc3C3CCC3)CC2)s1 | 580 |
| CNC(=O)CN(C)C(=O)C1CCCCc2nnc(C(C)C)n21 (stereo not drawn) | 542 |

| SMILES | RP-LC retention time [s] |
| --- | --- |
| COc1cc(OC)c(C(=O)CCCN2CCCC2)c(OC)c1 | 666 |
| Cc1cc(C(=O)NC2CCc3nnc(C)n3CC2)c(C)n1Cc1ccco1 (stereo not drawn) | 643 |
| Cc1c2cnn(-c3ccccc3)c(=O)c2c(C)n1CCCC(=O)N1CCN(c2ccccn2)CC1 | 611 |
| Cc1csc(-c2ccc(N3CCN(C(=O)c4cc(Cl)ccc4F)CC3)nc2)n1 | 943 |
| COc1ccccc1OCCNC(=O)CCc1nnc2c3cc(-c4ccc(F)cc4)nn3ccn12 | 752 |
| CCc1nc2c(c(=O)n1CC(=O)NC1CCCCC1)CN(Cc1ccccc1)CC2 | 652 |
| CC1CCCN(c2ccc(-c3noc(CN4CCN(c5ccccc5F)CC4)n3)cn2)C1 (stereo not drawn) | 1090 |
| O=C(NCc1ccc2c(c1)OCO2)C1CCCN(S(=O)(=O)c2c[nH]c(C(=O)N3CCCC3)c2)C1 (stereo not drawn) | 738 |
| CN(CC1CCOCC1)C(=O)Nc1ccccc1C(F)(F)F | 738 |
| Cn1ccc2cc(C(=O)NC3CCCC3)ccc21 | 806 |
| COc1ccccc1CNC(=O)Cn1nc2c(N3CCC(C)CC3)nccn2c1=O | 745 |
| O=C1COc2cc(S(=O)(=O)N3CCC(C(=O)N4CCc5ccccc54)CC3)c(Cl)cc2N1 | 844 |
| O=C(c1cc(-c2ccccn2)n[nH]1)N1CCN(C(=O)C2CCC2)CC1 | 612 |
| CCOC(=O)CCC(=O)NCCN1CCN(c2ccccc2)CC1 | 564 |
| CN1c2cc(F)ccc2C(=O)NC12CCN(C(=O)c1ccc3c(c1)OCO3)CC2 | 724 |
| O=C(C1CCC1)N1CCC(Cc2nc(C3CC3)n[nH]2)CC1 | 598 |
| CCOC(=O)C1CCC(CNC(=O)Nc2cc3c(cc2N2CCCCC2)n(C)c(=O)n3C)CC1 (stereo not drawn) | 689 |
| Cc1cccc(-c2nnc(SCC(=O)N3CCC(C)CC3)o2)c1 | 969 |

Further lines, results first:

| RP-LC retention time [s] | SMILES |
| --- | --- |
| 613 | COc1ccc(Cl)cc1NC(=O)COc1cc(C)nc(N2CCCC2)n1 |
| 985 | CCc1ccccc1NC(=O)C1CCN(S(=O)(=O)c2c(C)nn(-c3ccccc3)c2C)CC1 |
| 657 | COc1ccc(CCNC(=O)C2CC(=O)N(c3n[nH]c4ccccc34)C2)cc1OC (stereo not drawn) |
| 828 | CC(C)Sc1ccc(CC(=O)NCC2CCN(C(=O)NC(C)(C)C)CC2)cc1 |
| 597 | CN(C)CCNC(=O)c1ccc(CS(=O)Cc2ccccc2Cl)o1 (stereo not drawn) |
| 632 | Cc1c(CCC(=O)NCc2cccnc2)c(=O)n2nc(-c3ccc(Cl)cc3)nc2n1C |
| 791 | O=C(O)c1cc2cc(F)ccc2[nH]1 |
| 939 | Cc1ccccc1C(=O)Nc1nc(-c2ccc3c(c2)N(C)C(=O)CO3)cs1 |
| 830 | COc1ccc(NC(=O)Cn2nc3cc(C)nc(-c4ccccc4)n3c2=O)c(OC)c1 |
| 820 | CC1=C(c2ccc(C(C)C)cc2)S(=O)(=O)N=C1N1CCC(C(=O)NCC2CCCO2)CC1 (stereo not drawn) |
| 716 | CCN(CC)C(=O)C1C(=O)NC2(C)CC1c1ccccc1O2 (stereo not drawn) |
| 1050 | Cc1ccc(-c2ncc(C(=O)Nc3cccc(Br)c3)c(-c3ccncc3)n2)cc1 |
| 947 | COc1ccccc1-c1noc(C2CCCN2C(=O)Nc2ccccc2Cl)n1 (stereo not drawn) |
| 678 | COc1ccc(NC(=O)c2[nH]c3cc(C)sc3c2CN(C)C)c(OC)c1 |
| 770 | COc1ccc(N2C(=O)c3cc(C)nn3CC2(C)C(=O)NCc2ccc(F)cc2)cc1 (stereo not drawn) |
| 722 | CCCC(NC(=O)Cc1ccc(C)cc1)C(=O)Nc1nc2ccccc2[nH]1 (stereo not drawn) |
| 714 | Cc1cccc(NC(=O)Cn2nc3c(N(C)C4CCCCC4)nccn3c2=O)c1 |
| 959 | COc1ccc(-c2nc(-c3ccc4c(c3)oc(=O)n4C)no2)c(OC)c1 |
| 760 | CCC(C)NC(=O)C1COC2(CCN(C(=O)CC(C)(C)C)CC2)N1C(=O)c1ccc(OC)cc1 (stereo not drawn) |
| 670 | COCCCNC(=O)CCC(=O)N1CCCn2nc(-c3cn(C)c4ccccc34)cc21 |
| 636 | Cc1ccc2nc(CNC(=O)C3CCN(S(=O)(=O)c4ccc5c(c4)sc(=O)n5C)CC3)[nH]c2c1 |
| 810 | CCOc1ccc(CNC(=O)Cc2csc3nc(-c4ccc(C)c(C)c4)cn23)cc1OC |
| 876 | COC(=O)c1[nH]c(C)c(CN(C)C(=O)c2ccc(Br)cc2)c1C |
| 666 | COc1ccccc1N1CCN(CCCCNC(=O)c2ccc3ccccc3c2)CC1 |
| 828 | CCCN(C)C(=O)C1c2ccccc2CC(=O)N1Cc1ccccc1 (stereo not drawn) |
| 778 | Cc1[nH]c(C)c(S(=O)(=O)N2CCC(C(=O)N3CCc4ccccc43)CC2)c1C(=O)N1CCCCC1 |
| 803 | Cc1cc(C)cc(NC(=O)c2c(O)c3cccnc3n(-c3ccc(F)cc3)c2=O)c1 |
| 1020 | Cc1ccc(NS(=O)(=O)c2ccc(-c3c(C)noc3C)cc2)c(Cl)c1 |
| 801 | COc1ccc(Nc2ncccc2S(N)(=O)=O)cc1Cl |
| 702 | CCn1cc(-c2ccc(Cl)cc2)cc1C(=O)NCCN(C)C |
